Measured values: patent US4363805A, “Aminodesoxy-1.4;3.6-dianhydrohexitol nitrates and pharmaceutical composition” (Firma Willmar Schwabe, priority 1980, dated 1982)

Tests used:
mongrel cats = test: Inotropic and heart-circulatory effectiveness on narcotised cats, intravenous; format: in vivo, cat; settings: 6 animals; for blood pressure before / dp/dt (inotropism) before / heart frequency before: before administration
[1] = Acute toxicity, intravenous, mice; format: in vivo; settings: mouse, in vivo; intravenous, within 24 hours; read-out: Evaluated LD50-range
female NMRI-albino mice = test: Acute toxicity, intravenous, mice; format: in vivo; settings: within 24 hours
narcotised guinea pigs = test: Blood pressure experiments on guinea pigs, i.v.; format: in vivo, guinea pig

**Q.** With `O=[N+]([O-])O[C@H]1CO[C@H]2[C@@H]1OC[C@@H]2NCCCCc1ccccc1` [Example 29, 5-(4-Phenylbutylamino)-5-desoxy-1.4;3.6-dianhydro-L-iditol 2-nitrate] as the compound, how does the blood pressure before (mongrel cats; 0.25 mg/kg i.v.) read?
**A.** The blood pressure before was 106.8 mm.Hg.

**Q.** And the “dp/dt (inotropism) before” value (mongrel cats; 0.25 mg/kg i.v.)?
**A.** Its value is 6480 mm.Hg/sec.

**Q.** What about the heart frequency before (mongrel cats; 0.25 mg/kg i.v.) of the same compound?
**A.** The heart frequency before was 209.0 min⁻¹.

**Q.** What about the “blood pressure WD” value (mongrel cats; 0.25 mg/kg i.v.) of the same compound?
**A.** Its value is 3.2 min.

**Q.** What about the blood pressure after (mongrel cats; 0.25 mg/kg i.v.) of the same compound?
**A.** Its blood pressure after is 91.3 mm.Hg.

**Q.** What about the “blood pressure Δ” value (mongrel cats; 0.25 mg/kg i.v.) of the same compound?
**A.** The value was -15.5 mm.Hg.

**Q.** What about the “dp/dt (inotropism) after” value (mongrel cats; 0.25 mg/kg i.v.) of the same compound?
**A.** The value was 6000 mm.Hg/sec.

**Q.** What about the “dp/dt (inotropism) Δ” value (mongrel cats; 0.25 mg/kg i.v.) of the same compound?
**A.** The value was -480 mm.Hg/sec.

**Q.** What about the “dp/dt WD” value (mongrel cats; 0.25 mg/kg i.v.) of the same compound?
**A.** The value was 1.6 min.

**Q.** And the heart frequency after (mongrel cats; 0.25 mg/kg i.v.)?
**A.** Its heart frequency after is 204.3 min⁻¹.

**Q.** What about the “heart frequency Δ” value (mongrel cats; 0.25 mg/kg i.v.) of the same compound?
**A.** Its value is -4.7 min⁻¹.

**Q.** And the “blood pressure WD” value (mongrel cats; 0.50 mg/kg i.v.)?
**A.** The value was 4.1 min.

**Q.** And the blood pressure after (mongrel cats; 0.50 mg/kg i.v.)?
**A.** The blood pressure after was 91.3 mm.Hg.

**Q.** And the “blood pressure Δ” value (mongrel cats; 0.50 mg/kg i.v.)?
**A.** The value was -22.0 mm.Hg.

**Q.** And the “dp/dt (inotropism) after” value (mongrel cats; 0.50 mg/kg i.v.)?
**A.** Its value is 6000 mm.Hg/sec.

**Q.** What about the “dp/dt (inotropism) Δ” value (mongrel cats; 0.50 mg/kg i.v.) of the same compound?
**A.** The value was -1040 mm.Hg/sec.

**Q.** And the “dp/dt WD” value (mongrel cats; 0.50 mg/kg i.v.)?
**A.** The value was 8.2 min.

**Q.** And the heart frequency after (mongrel cats; 0.50 mg/kg i.v.)?
**A.** Its heart frequency after is 204.7 min⁻¹.

**Q.** What about the “heart frequency Δ” value (mongrel cats; 0.50 mg/kg i.v.) of the same compound?
**A.** Its value is -7.3 min⁻¹.

**Q.** And the “blood pressure WD” value (mongrel cats; 1.00 mg/kg i.v.)?
**A.** Its value is 11.2 min.

**Q.** What about the blood pressure after (mongrel cats; 1.00 mg/kg i.v.) of the same compound?
**A.** Its blood pressure after is 90.7 mm.Hg.

**Q.** And the “blood pressure Δ” value (mongrel cats; 1.00 mg/kg i.v.)?
**A.** The value was -34.0 mm.Hg.

**Q.** What about the “dp/dt (inotropism) after” value (mongrel cats; 1.00 mg/kg i.v.) of the same compound?
**A.** The value was 5000 mm.Hg/sec.

**Q.** What about the “dp/dt (inotropism) Δ” value (mongrel cats; 1.00 mg/kg i.v.) of the same compound?
**A.** Its value is -2360 mm.Hg/sec.

**Q.** What about the “dp/dt WD” value (mongrel cats; 1.00 mg/kg i.v.) of the same compound?
**A.** Its value is 25.5 min.

**Q.** And the heart frequency after (mongrel cats; 1.00 mg/kg i.v.)?
**A.** Its heart frequency after is 197.7 min⁻¹.

**Q.** And the “heart frequency Δ” value (mongrel cats; 1.00 mg/kg i.v.)?
**A.** The value was -11.7 min⁻¹.

**Q.** What about the “blood pressure WD” value (mongrel cats; 2.50 mg/kg i.v.) of the same compound?
**A.** The value was greater than 10 min.

**Q.** What about the blood pressure after (mongrel cats; 2.50 mg/kg i.v.) of the same compound?
**A.** Its blood pressure after is 80.8 mm.Hg.

**Q.** And the “blood pressure Δ” value (mongrel cats; 2.50 mg/kg i.v.)?
**A.** Its value is -48.7 mm.Hg.

**Q.** And the “dp/dt (inotropism) after” value (mongrel cats; 2.50 mg/kg i.v.)?
**A.** Its value is 3920 mm.Hg/sec.

**Q.** What about the “dp/dt (inotropism) Δ” value (mongrel cats; 2.50 mg/kg i.v.) of the same compound?
**A.** The value was -3580 mm.Hg/sec.

**Q.** And the “dp/dt WD” value (mongrel cats; 2.50 mg/kg i.v.)?
**A.** The value was greater than 10 min.

**Q.** And the heart frequency after (mongrel cats; 2.50 mg/kg i.v.)?
**A.** The heart frequency after was 182.0 min⁻¹.

**Q.** What about the “heart frequency Δ” value (mongrel cats; 2.50 mg/kg i.v.) of the same compound?
**A.** The value was -23.0 min⁻¹.

**Q.** What about the LD50 at 24 h [1] of the same compound?
**A.** The LD50 at 24 h was less than 50 mg/kg.

**Q.** And the Frequency of death (female NMRI-albino mice; 50 mg/kg i.v.)?
**A.** The Frequency of death was 5/6.

**Q.** What about the Frequency of death (female NMRI-albino mice; 100 mg/kg i.v.) of the same compound?
**A.** The Frequency of death was 5/6.

**Q.** What about the Frequency of death (female NMRI-albino mice; 200 mg/kg i.v.) of the same compound?
**A.** The Frequency of death was 3/3.

**Q.** Which results are given for `O=[N+]([O-])O[C@H]1CO[C@H]2[C@@H]1OC[C@@H]2NCCCOc1ccccc1` [Example 36, 5-(3-Phenoxypropylamino)-5-desoxy-1.4;3.6-dianhydro-L-iditol 2-nitrate]?
**A.** blood pressure before (mongrel cats; 0.25 mg/kg i.v.): 114.5 mm.Hg; dp/dt (inotropism) before (mongrel cats; 0.25 mg/kg i.v.): 7933 mm.Hg/sec; heart frequency before (mongrel cats; 0.25 mg/kg i.v.): 200.3 min⁻¹; blood pressure WD (mongrel cats; 0.25 mg/kg i.v.): 5.1 min; blood pressure after (mongrel cats; 0.25 mg/kg i.v.): 97.7 mm.Hg; blood pressure Δ (mongrel cats; 0.25 mg/kg i.v.): -19.8 mm.Hg; dp/dt (inotropism) after (mongrel cats; 0.25 mg/kg i.v.): 7433 mm.Hg/sec; dp/dt (inotropism) Δ (mongrel cats; 0.25 mg/kg i.v.): -500 mm.Hg/sec; dp/dt WD (mongrel cats; 0.25 mg/kg i.v.): 3.3 min; heart frequency after (mongrel cats; 0.25 mg/kg i.v.): 204.3 min⁻¹; blood pressure WD (mongrel cats; 0.50 mg/kg i.v.): 8.5 min; blood pressure after (mongrel cats; 0.50 mg/kg i.v.): 84.5 mm.Hg; blood pressure Δ (mongrel cats; 0.50 mg/kg i.v.): -28.0 mm.Hg; dp/dt (inotropism) after (mongrel cats; 0.50 mg/kg i.v.): 6650 mm.Hg/sec; dp/dt (inotropism) Δ (mongrel cats; 0.50 mg/kg i.v.): -1183 mm.Hg/sec; dp/dt WD (mongrel cats; 0.50 mg/kg i.v.): 7.9 min; heart frequency after (mongrel cats; 0.50 mg/kg i.v.): 200.3 min⁻¹; heart frequency Δ (mongrel cats; 0.50 mg/kg i.v.): -3.7 min⁻¹; blood pressure WD (mongrel cats; 1.00 mg/kg i.v.): 14.8 min; blood pressure after (mongrel cats; 1.00 mg/kg i.v.): 74.3 mm.Hg; blood pressure Δ (mongrel cats; 1.00 mg/kg i.v.): -42.5 mm.Hg; dp/dt (inotropism) after (mongrel cats; 1.00 mg/kg i.v.): 5467 mm.Hg/sec; dp/dt (inotropism) Δ (mongrel cats; 1.00 mg/kg i.v.): -2416 mm.Hg/sec; dp/dt WD (mongrel cats; 1.00 mg/kg i.v.): 19.0 min; heart frequency after (mongrel cats; 1.00 mg/kg i.v.): 194.3 min⁻¹; heart frequency Δ (mongrel cats; 1.00 mg/kg i.v.): -8.0 min⁻¹; blood pressure WD (mongrel cats; 2.50 mg/kg i.v.): > 10 min; blood pressure after (mongrel cats; 2.50 mg/kg i.v.): 62.5 mm.Hg; blood pressure Δ (mongrel cats; 2.50 mg/kg i.v.): -58.3 mm.Hg; dp/dt (inotropism) after (mongrel cats; 2.50 mg/kg i.v.): 4000 mm.Hg/sec; dp/dt (inotropism) Δ (mongrel cats; 2.50 mg/kg i.v.): -3883 mm.Hg/sec; dp/dt WD (mongrel cats; 2.50 mg/kg i.v.): 10 min; heart frequency after (mongrel cats; 2.50 mg/kg i.v.): 175.3 min⁻¹; heart frequency Δ (mongrel cats; 2.50 mg/kg i.v.): -22.4 min⁻¹; LD50 at 24 h [1]: 50 to 100 mg/kg; Frequency of death (female NMRI-albino mice; 50 mg/kg i.v.): 0/3; Frequency of death (female NMRI-albino mice; 100 mg/kg i.v.): 5/6

**Q.** What does the source list for `CC(=O)N[C@H]1CO[C@H]2[C@@H]1OC[C@@H]2O[N+](=O)[O-]` [Example 6, 5-Acetylamino-5-desoxy-1.4;3.6-dianhydro-L-iditol 2-nitrate]?
**A.** blood pressure after (narcotised guinea pigs; 0.25 mg/kg i.v.): 63.75 ± 7.32 mm.Hg; blood pressure Δ (narcotised guinea pigs; 0.25 mg/kg i.v.): -7.00 mm.Hg; blood pressure before (narcotised guinea pigs; 0.25 mg/kg i.v., before administration): 70.75 ± 6.36 mm.Hg; blood pressure after (narcotised guinea pigs; 1.00 mg/kg i.v.): 55.75 ± 7.94 mm.Hg; blood pressure Δ (narcotised guinea pigs; 1.00 mg/kg i.v.): -14.50 mm.Hg; blood pressure after (narcotised guinea pigs; 2.50 mg/kg i.v.): 47.75 ± 5.88 mm.Hg; blood pressure Δ (narcotised guinea pigs; 2.50 mg/kg i.v.): -17.75 mm.Hg; LD50 at 24 h [1]: > 200 mg/kg; Frequency of death (female NMRI-albino mice; 200 mg/kg i.v.): 0/3
